# PubChem BioAssay AID2060603 (Molecular Pharmacology Branch, DTP, NCI, 2025)
# pIC50: −log10 of the molar value.
# Tested on: 422866-222-R5-J1-PDC spheroid viability
# Assay: Anticancer human tumor 422866-222-R5-J1-PDC patient-derived pancreatic adenocarcinoma cell line growth inhibition [CLK]
# Settings: spheroids with HUVEC and MSC; for pIC50: curve of first compound; for viability, T/C: stronger effect = lower value
# Summary of the method: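 Patient-derived tumor cells grown as complex spheroids with HUVEC endothelial cells and mesenchymal stem cells, treated with drug combinations. Concentrations descend in half-log steps from near clinical Cmax, or from 10 microM if Cmax unknown.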
# [1] = second compound 0.0316 µM, first compound 0.0316 µM
# [2] = second compound 0.0316 µM, first compound 0.1 µM
# [3] = second compound 0.0316 µM, first compound 0.316 µM
# [4] = second compound 0.0316 µM, first compound 1 µM
# [5] = second compound 0.0316 µM, first compound 3.16 µM
# [6] = second compound 0.0316 µM, first compound 10 µM
# [7] = second compound 0.1 µM, first compound 0.0316 µM
# [8] = second compound 0.1 µM, first compound 0.1 µM
# [9] = second compound 0.1 µM, first compound 0.316 µM
# [10] = second compound 0.1 µM, first compound 1 µM
# [11] = second compound 0.1 µM, first compound 3.16 µM
# [12] = second compound 0.1 µM, first compound 10 µM
# [13] = second compound 0.316 µM, first compound 0.0316 µM
# [14] = second compound 0.316 µM, first compound 0.1 µM
# [15] = second compound 0.316 µM, first compound 0.316 µM
# [16] = second compound 0.316 µM, first compound 1 µM
# [17] = second compound 0.316 µM, first compound 3.16 µM
# [18] = second compound 0.316 µM, first compound 10 µM
# [19] = second compound 1 µM, first compound 0.0316 µM
# [20] = second compound 1 µM, first compound 0.1 µM
# [21] = second compound 1 µM, first compound 0.316 µM
# [22] = second compound 1 µM, first compound 1 µM
# [23] = second compound 1 µM, first compound 3.16 µM
# [24] = second compound 1 µM, first compound 10 µM
# [25] = second compound 3.16 µM, first compound 0.0316 µM
# [26] = second compound 3.16 µM, first compound 0.1 µM
# [27] = second compound 3.16 µM, first compound 0.316 µM
# [28] = second compound 3.16 µM, first compound 1 µM
# [29] = second compound 3.16 µM, first compound 3.16 µM
# [30] = second compound 3.16 µM, first compound 10 µM
# [31] = second compound 10 µM, first compound 0.0316 µM
# [32] = second compound 10 µM, first compound 0.1 µM
# [33] = second compound 10 µM, first compound 0.316 µM
# [34] = second compound 10 µM, first compound 1 µM
# [35] = second compound 10 µM, first compound 3.16 µM
# [36] = second compound 10 µM, first compound 10 µM
# 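Also: spheroids exposed to agents for seven days before readout.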
smiles,measurement,setting,value
C#Cc1c(F)ccc2cc(O)cc(-c3ncc4c(N5CC6CCC(C5)N6)nc(OCC56CCCN5CC(F)C6)nc4c3F)c12 (stereo not drawn) + CN1CCN(c2cc(C(=O)Nc3cc4cc(-c5cnn(C)c5)ccc4cn3)ccn2)CC1,pIC50,second compound 0.0316 µM,5.81
same,pIC50,second compound 0.1 µM,5.75
same,pIC50,second compound 0.316 µM,5.92
same,pIC50,second compound 1 µM,> 7.50
same,pIC50,second compound 3.16 µM,> 7.50
same,pIC50,second compound 10 µM,> 7.50
same,"viability, T/C",[1],99.1%
same,"viability, T/C",[2],100%
same,"viability, T/C",[3],70.7%
same,"viability, T/C",[4],60.9%
same,"viability, T/C",[5],37.4%
same,"viability, T/C",[6],33.9%
same,"viability, T/C",[7],100%
same,"viability, T/C",[8],113%
same,"viability, T/C",[9],74.7%
same,"viability, T/C",[10],60.5%
same,"viability, T/C",[11],45.3%
same,"viability, T/C",[12],33.4%
same,"viability, T/C",[13],105%
same,"viability, T/C",[14],83.4%
same,"viability, T/C",[15],68.4%
same,"viability, T/C",[16],50.5%
same,"viability, T/C",[17],41.4%
same,"viability, T/C",[18],26.8%
same,"viability, T/C",[19],35.7%
same,"viability, T/C",[20],35.1%
same,"viability, T/C",[21],38%
same,"viability, T/C",[22],27.2%
same,"viability, T/C",[23],24.3%
same,"viability, T/C",[24],19%
same,"viability, T/C",[25],11.2%
same,"viability, T/C",[26],11.9%
same,"viability, T/C",[27],7.84%
same,"viability, T/C",[28],7.25%
same,"viability, T/C",[29],5.39%
same,"viability, T/C",[30],7.56%
same,"viability, T/C",[31],5.16%
same,"viability, T/C",[32],2.81%
same,"viability, T/C",[33],1.05%
same,"viability, T/C",[34],1.26%
same,"viability, T/C",[35],1.28%
same,"viability, T/C",[36],4.84%
Cn1ncnc1[C@H]1c2n[nH]c(=O)c3cc(F)cc(c23)N[C@@H]1c1ccc(F)cc1 + CN1CCN(c2cc(C(=O)Nc3cc4cc(-c5cnn(C)c5)ccc4cn3)ccn2)CC1,pIC50,second compound 0.0316 µM,< 7.00
same,pIC50,second compound 0.1 µM,< 7.00
same,pIC50,second compound 0.316 µM,< 7.00
same,pIC50,second compound 1 µM,> 9.50
same,pIC50,second compound 3.16 µM,> 9.50
same,pIC50,second compound 10 µM,> 9.50
same,"viability, T/C","second compound 0.0316 µM, first compound 0.000316 µM",92.9%
same,"viability, T/C","second compound 0.0316 µM, first compound 0.001 µM",112%
same,"viability, T/C","second compound 0.0316 µM, first compound 0.00316 µM",106%
same,"viability, T/C","second compound 0.0316 µM, first compound 0.01 µM",102%
same,"viability, T/C",[1],96%
same,"viability, T/C",[2],87.3%
same,"viability, T/C","second compound 0.1 µM, first compound 0.000316 µM",126%
same,"viability, T/C","second compound 0.1 µM, first compound 0.001 µM",114%
same,"viability, T/C","second compound 0.1 µM, first compound 0.00316 µM",113%
same,"viability, T/C","second compound 0.1 µM, first compound 0.01 µM",97.2%
same,"viability, T/C",[7],90%
same,"viability, T/C",[8],80.1%
same,"viability, T/C","second compound 0.316 µM, first compound 0.000316 µM",99.3%
same,"viability, T/C","second compound 0.316 µM, first compound 0.001 µM",96.3%
same,"viability, T/C","second compound 0.316 µM, first compound 0.00316 µM",85.8%
same,"viability, T/C","second compound 0.316 µM, first compound 0.01 µM",75.8%
same,"viability, T/C",[13],81.7%
same,"viability, T/C",[14],71.9%
same,"viability, T/C","second compound 1 µM, first compound 0.000316 µM",24%
same,"viability, T/C","second compound 1 µM, first compound 0.001 µM",22.9%
same,"viability, T/C","second compound 1 µM, first compound 0.00316 µM",19%
same,"viability, T/C","second compound 1 µM, first compound 0.01 µM",22.3%
same,"viability, T/C",[19],22.3%
same,"viability, T/C",[20],18.7%
same,"viability, T/C","second compound 3.16 µM, first compound 0.000316 µM",7.18%
same,"viability, T/C","second compound 3.16 µM, first compound 0.001 µM",10.9%
same,"viability, T/C","second compound 3.16 µM, first compound 0.00316 µM",8.25%
same,"viability, T/C","second compound 3.16 µM, first compound 0.01 µM",7.82%
same,"viability, T/C",[25],7.43%
same,"viability, T/C",[26],10.8%
same,"viability, T/C","second compound 10 µM, first compound 0.000316 µM",1.01%
same,"viability, T/C","second compound 10 µM, first compound 0.001 µM",2.31%
same,"viability, T/C","second compound 10 µM, first compound 0.00316 µM",1.8%
same,"viability, T/C","second compound 10 µM, first compound 0.01 µM",0.75%
same,"viability, T/C",[31],3.12%
same,"viability, T/C",[32],2.33%
C=CC(=O)N1CCN(c2nc(=O)n(-c3c(C)ccnc3C(C)C)c3nc(-c4c(O)cccc4F)c(F)cc23)C(C)C1 (stereo not drawn) + CNC(=O)c1ccc(Nc2nc(OC3CCCC3)c3c(-c4ccc5nc(C)oc5c4)c[nH]c3n2)c(OC)c1,pIC50,second compound 0.0316 µM,> 7.50
same,pIC50,second compound 0.1 µM,> 7.50
same,pIC50,second compound 0.316 µM,> 7.50
same,pIC50,second compound 1 µM,> 7.50
same,pIC50,second compound 3.16 µM,> 7.50
same,pIC50,second compound 10 µM,> 7.50
same,"viability, T/C",[1],36.8%
same,"viability, T/C",[2],35.4%
same,"viability, T/C",[3],29.5%
same,"viability, T/C",[4],27.4%
same,"viability, T/C",[5],23.5%
same,"viability, T/C",[6],24.6%
same,"viability, T/C",[7],34.6%
same,"viability, T/C",[8],33.2%
same,"viability, T/C",[9],27.6%
same,"viability, T/C",[10],28.7%
same,"viability, T/C",[11],26%
same,"viability, T/C",[12],26.1%
same,"viability, T/C",[13],34.9%
same,"viability, T/C",[14],30.8%
same,"viability, T/C",[15],27.1%
same,"viability, T/C",[16],25.6%
same,"viability, T/C",[17],24.8%
same,"viability, T/C",[18],26.2%
same,"viability, T/C",[19],35.7%
same,"viability, T/C",[20],25.7%
same,"viability, T/C",[21],28.8%
same,"viability, T/C",[22],25.3%
same,"viability, T/C",[23],31.9%
same,"viability, T/C",[24],27.7%
same,"viability, T/C",[25],32.3%
same,"viability, T/C",[26],29.9%
same,"viability, T/C",[27],28.3%
same,"viability, T/C",[28],24.4%
same,"viability, T/C",[29],27.6%
same,"viability, T/C",[30],30.9%
same,"viability, T/C",[31],32%
same,"viability, T/C",[32],28.9%
same,"viability, T/C",[33],27.8%
same,"viability, T/C",[34],27.4%
same,"viability, T/C",[35],29.9%
same,"viability, T/C",[36],26.4%
CC1COCCN1c1cc(C2(S(C)(=N)=O)CC2)nc(-c2ccnc3[nH]ccc23)n1 (stereo not drawn) + CN1CCN(c2cc(C(=O)Nc3cc4cc(-c5cnn(C)c5)ccc4cn3)ccn2)CC1,pIC50,second compound 0.0316 µM,< 5.00
same,pIC50,second compound 0.1 µM,< 5.00
same,pIC50,second compound 0.316 µM,< 5.00
same,pIC50,second compound 1 µM,> 7.50
same,pIC50,second compound 3.16 µM,> 7.50
same,pIC50,second compound 10 µM,> 7.50
same,"viability, T/C",[1],112%
same,"viability, T/C",[2],104%
same,"viability, T/C",[3],93.6%
same,"viability, T/C",[4],89.3%
same,"viability, T/C",[5],56%
same,"viability, T/C",[6],55.6%
same,"viability, T/C",[7],115%
same,"viability, T/C",[8],95.7%
same,"viability, T/C",[9],113%
same,"viability, T/C",[10],74.3%
same,"viability, T/C",[11],60.2%
same,"viability, T/C",[12],61.2%
same,"viability, T/C",[13],95%
same,"viability, T/C",[14],85.8%
same,"viability, T/C",[15],79.9%
same,"viability, T/C",[16],73.2%
same,"viability, T/C",[17],61.2%
same,"viability, T/C",[18],56.2%
same,"viability, T/C",[19],30.9%
same,"viability, T/C",[20],26.6%
same,"viability, T/C",[21],27.7%
same,"viability, T/C",[22],21.6%
same,"viability, T/C",[23],23.8%
same,"viability, T/C",[24],17.5%
same,"viability, T/C",[25],10.7%
same,"viability, T/C",[26],10.4%
same,"viability, T/C",[27],11.6%
same,"viability, T/C",[28],10.4%
same,"viability, T/C",[29],10.6%
same,"viability, T/C",[30],10.2%
same,"viability, T/C",[31],2.45%
same,"viability, T/C",[32],2.21%
same,"viability, T/C",[33],1.54%
same,"viability, T/C",[34],2.27%
same,"viability, T/C",[35],4.47%
same,"viability, T/C",[36],2.46%
